# In patent US20240238425A1, “HSD17B13 Inhibitors and/or Degraders” (Pfizer Inc., priority 2022, published 2024):
# Where a name gives a salt, the structure may show the parent alone.
# Tested on: HiBiT-HSD17β13 fusion protein (N-terminal HiBiT-tagged HSD17β13 isoform D) in Huh7 HiBiT-HSD17β13 OE cells
# Assay: Whole-cell Huh7-HSD17B13 HiBiT assay (degrader potency and maximal efficacy, luminescence readout)
# Format: cell-based, human
# Details: 24 hour incubation, geometric mean, * = geometric mean for all forms tested (parent and salt forms); for DC50: read-out: Huh7_HIBIT-HSD17β13_DC50 GMean DC50; for Huh7_HIBIT-HSD17β13_DC50 GMean Asymptote Maximum: max. concentration 1 μM
# Method in brief: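 Huh7 cells stably overexpressing N-terminal HiBiT-tagged HSD17β13 isoform D, clone matched to primary hepatocyte expression, were exposed to an 11-point, 1 in 3.162 dilution series (top 1 μM final) for 24 h at 37° C. Lytic HiBiT luminescence was normalised to DMSO and parental-cell controls; DC50 from four-parameter logistic fit, with CellTiter-Glo counter screen.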
DC50,SMILES,Huh7_HIBIT-HSD17β13_DC50 GMean Asymptote Maximum
2 nM,"Cc1ccc(C(=O)N2CCC3(CC2)CC(N2CCN(c4ccc5cn([C@H]6CC[C@H](CNC(=O)c7cc(F)c(O)c(F)c7F)CC6)nc5c4)CC2)C3)cc1N1CCC(=O)NC1=O [Example 82, N-({(1r,4r)-4-[6-(4-{7-[3-(2,4-dioxo-1,3-diazinan-1-yl)-4-methylbenzoyl]-7-azaspiro[3.5]nonan-2-yl}piperazin-1-yl)-2H-indazol-2-yl]cyclohexyl}methyl)-2,3,5-trifluoro-4-hydroxybenzamide, trifluoroacetate salt]",74%
3 nM,"O=C1CCN(c2cc(C(=O)N3CCC(CN4CCN(c5ncc(-c6ccc7cn([C@H]8CC[C@H](CNC(=O)c9cc(F)c(O)c(F)c9F)CC8)nc7c6)cn5)CC4)CC3)ccc2Cl)C(=O)N1 [Example 89, N-{[(1r,4r)-4-(6-{2-[4-({1-[4-chloro-3-(2,4-dioxo-1,3-diazinan-1-yl)benzoyl]piperidin-4-yl}methyl)piperazin-1-yl]pyrimidin-5-yl}-2H-indazol-2-yl)cyclohexyl]methyl}-2,3,5-trifluoro-4-hydroxybenzamide, formate salt]",77%
6.1 nM,"Cc1ccc(C(=O)N2CCN(C3CCN(c4ncc(-c5ccc6cn([C@H]7CC[C@H](CNC(=O)c8cc(F)c(O)c(F)c8F)CC7)nc6c5)cn4)CC3)CC2)cc1N1CCC(=O)NC1=O [Example 90, N-{[(1r,4r)-4-{6-[2-(4-{4-[3-(2,4-dioxo-1,3-diazinan-1-yl)-4-methylbenzoyl]piperazin-1-yl}piperidin-1-yl)pyrimidin-5-yl]-2H-indazol-2-yl}cyclohexyl]methyl}-2,3,5-trifluoro-4-hydroxybenzamide]",60* %

# The remaining lines, values behind:
SMILES,DC50,Huh7_HIBIT-HSD17β13_DC50 GMean Asymptote Maximum
"Cc1ccc(C(=O)N2CCC3(CC2)CC(N2CCN(c4cnc(-c5ccc6cn([C@H]7CC[C@H](CNC(=O)c8cc(F)c(O)c(F)c8F)CC7)nc6c5)cn4)CC2)CO3)cc1N1CCC(=O)NC1=O (stereo partly drawn) [Example 71, N-{[(1r,4r)-4-{6-[5-(4-{8-[3-(2,4-dioxo-1,3-diazinan-1-yl)-4-methylbenzoyl]-1-oxa-8-azaspiro[4.5]decan-3-yl}piperazin-1-yl)pyrazin-2-yl]-2H-indazol-2-yl}cyclohexyl]methyl}-2,3,5-trifluoro-4-hydroxybenzamide, trifluoroacetate salt]",2.4 nM,76%
"Cc1ccc(C(=O)N2CCC3(CC2)CC(N2CCN(c4cnc(-c5ccc6cn([C@H]7CC[C@H](CNC(=O)c8cc(F)c(O)c(F)c8F)CC7)nc6c5)cn4)CC2)C3)cc1N1CCC(=O)NC1=O [Example 72, N-{[(1r,4r)-4-{6-[5-(4-{7-[3-(2,4-dioxo-1,3-diazinan-1-yl)-4-methylbenzoyl]-7-azaspiro[3.5]nonan-2-yl}piperazin-1-yl)pyrazin-2-yl]-2H-indazol-2-yl}cyclohexyl]methyl}-2,3,5-trifluoro-4-hydroxybenzamide, trifluoroacetate salt]",1.6 nM,78%
"Cc1ccc(C(=O)N2CCC3(CC2)C[C@H](N2CCN(c4ncc(-c5ccc6cn([C@H]7CC[C@H](CNC(=O)c8cc(F)c(O)c(F)c8F)CC7)nc6c5)cn4)CC2)CO3)cc1N1CCC(=O)NC1=O [Example 73, N-{[(1r,4r)-4-{6-[2-(4-{(3S)-8-[3-(2,4-dioxo-1,3-diazinan-1-yl)-4-methylbenzoyl]-1-oxa-8-azaspiro[4.5]decan-3-yl}piperazin-1-yl)pyrimidin-5-yl]-2H-indazol-2-yl}cyclohexyl]methyl}-2,3,5-trifluoro-4-hydroxybenzamide, trifluoroacetate salt]",0.96 nM,76%
